In test [1] the test system is HSL+/+ adipocytes. The test is described as follows: Lipolysis (glycerol release) in HSL+/+ adipocytes from wild type mice. It is filed as cell-based, mouse. The settings on record: for Lipolysis (nmol glycerol produced): HSL +/+, 2 hours; for stimulation of lipolysis, result in words: HSL+/+ adipocytes compared with HSL−/−. How it is done: (§1) To determine whether adipomodulin acts through the classical HSL pathway, Sample 121 was tested in HSL+/+ and HSL−/− adipocytes derived from wild type and HSL knockout mice (obtained from Dr. Grant Mitchell, Sainte Justine Hospital, Montreal, Quebec, Canada), respectively. […] Lipolysis was measured as glycerol release from an adipocyte suspension. In each experiment, adipocytes were pooled from perigonadal fat of two to four 6-month-old mice of the same gender and genotype. One hundred microliters of adipocyte suspension were incubated for 2 hours in a final volume of […] of Krebs-Ringer-HEPES (30 mM) buffer (pH 7.4) supplemented with 2.5% BSA, 2.5% N6-[R-(−)-1-methyl-2-phenyl] adenosine ([…]), and 1 U/mL adenosine deaminase. In some tubes, the lipolytic beta3-adrenergic agonist CL316,243 ([…]) (Wyeth-Ayerst Research Laboratories, Princeton, N.J.) or cAMP agonist (dibutryl cAMP) were added. After a 2-hour incubation, the reaction was stopped by freezing on dry ice. The mixture was extracted with chloroform to remove triglycerides, and glycerol content was then determined by glycerol assay kit (Roche Diagnostics).

Test [2] concerns HSL−/− adipocytes. The experiment in a line: Lipolysis (glycerol release) in HSL-/- adipocytes from HSL knockout mice. The class given is cell-based, mouse. Particulars: 2 hours. The protocol: as §1
Test [3] deals with receptor for adipomodulin on NIH 3T3-L1 adipocytes (mouse). The experiment in a line: 125I-ligand binding to 3T3-L1 adipocytes at 4 C, 2 h, competitor: excess unlabeled λ- + k-light chain mix.
Test [4] has as its system NIH 3T3-L1 adipocytes. The test is described as follows: Lipolysis (glycerol) in differentiated NIH 3T3-L1 adipocytes (Example 8). The settings on record: 0.1 mM, 4 hours, 37° C. The class given is cell-based, mouse. How it is done:
(§2) Stimulation of lipolysis in differentiated 3T3-L1 cells was measured according to the procedure described in Hirsch, A. H. & Rosen, O. M., “Lipolytic stimulation modulates the subcellular distribution of hormone-sensitive lipase in 3T3-L1 cells,” J. Lipid Res., vol. 25, pp. 665-667 (1984), which is incorporated herein in its entirety. The 3T3-L1 preadipocyte cell line (from ATCC) was differentiated by treating confluent monolayers with dexamethasone 0.5 μM, 0.15 μM insulin, and methylisobutylxanthine (IBMX) 0.5 mM. After 48 hours, the cells were fed with fresh medium containing 0.15 μM insulin and maintained in culture for 24 hours. Next, the cells were maintained in insulin-free DMEM containing 10% fetal bovine serum for 4-5 days. On the day of experimentation, the differentiated cells were incubated in serum-free DMEM containing 0.2% fatty acid free BSA and 5 mM glucose and treated with adipomodulin, adipomodulin elution buffer, or IBMX at 37° C. for 4 hours. […] The levels of cAMP in the cytosol and the supernatant were measured by competitive radioimmunoassay. […] After several washing steps, the complexes of radioactive cAMP-antibody are counted in a gamma counter. […]

In test [5] the test system is cAMP. The test is described as follows: cAMP radioimmunoassay in differentiated NIH 3T3-L1 adipocytes. The class given is cell-based, mouse. How it is done: as §2

Several values for one entry are separate records, joined by “and”; a condition that tells them apart may be missing. Equal entries are not always repeated.

Turning to `CC(C)NCC(O)c1ccc(O)c(O)c1` (stereo not drawn) [Isoproterenol, isoproterenol], the “Lipolysis (nmol glycerol produced)” value in test [1] (10 uM) was found to be 5.8 ± 1.0 nmol glycerol produced; in test [2] (10 uM), 0.9 ± 0.2 nmol glycerol produced. Further, the “stimulation of lipolysis, result in words” value in test [1] was “stimulated lipolysis most dramatically in HSL+/+ adipocytes”.

On to `CCCC(=O)Nc1ncnc2c1ncn2[C@@H]1O[C@@H]2COP(=O)(O)O[C@H]2[C@H]1OC(=O)CCC` [Dibutryl cAMP, dibutryl cAMP], for which the results for the “Lipolysis (nmol glycerol produced)” value in test [1] (1 mM) and in test [2] (1 mM) were 7.6 ± 1.0 nmol glycerol produced and 1.1 ± 0.1 nmol glycerol produced, respectively. Further, in test [1], the “stimulation of lipolysis, result in words” value is “stimulated lipolysis most dramatically in HSL+/+ adipocytes”.

On to `C[C@H](Cc1ccc2c(c1)OC(C(=O)[O-])(C(=O)[O-])O2)NC[C@H](O)c1cccc(Cl)c1.[Na+].[Na+]` [CL316, 243], for which the “Lipolysis (nmol glycerol produced)” value in test [1] (10 uM) is reported as 6.2 ± 1.1 nmol glycerol produced; in test [2] (10 uM), 1.1 ± 0.3 nmol glycerol produced.

As to adipomodulin (Sample 122), the Binding, CPM/well in test [3] is 3230 CPM/well and 3840 CPM/well.

On to `CC(C)Cn1c(=O)n(C)c(=O)c2[nH]cnc21` [IBMX, methylisobutylxanthine], for which, in test [4], the Lipolysis was found to be 3400 ± 50 pmol glycerol/well. In test [5] (0.1 mM, 4 hours, 37° C.), the cAMP amounted to 69 ± 4 fmol/well. The “effect on cAMP, result in words” value in test [5] (versus medium control and elution buffer controls) is recorded as “significant stimulation of cAMP”.
